Assay results: patent US20240390434A1, “PROBIOTIC ENHANCERS AND USES THEREOF” (Blis Technologies Limited, priority 2021, published 2024)

Assays:
Type in all cases: cell-based
[1] = tested on: S. aureus A222; assay: Deferred antagonism assay, producer S. salivarius K12; details: for Zone of inhibition S. aureus A222 / Inhibitory activity of S. salivarius K12 in presence of saccharides, S. aureus A222: K12
Method: (§1) 1-2 producer strain colonies were transferred from a stock plate into 900 μL of suspension solution using a fresh cotton swab. Following this, suspensions were vortexed, and a sample was inoculated onto solid culture media using a fresh cotton swab. The inoculation was a streak that runs diametrically across the agar plate in a 1.5 cm wide strip. The plate was then incubated. Following incubation all visible colonies were removed by swabbing them from the agar surface. The plates were then treated with chloroform by dispensing 2 ml of chloroform onto 4 cm×4 cm piece of cloth and sealing the inverted agar plate on top for 30 minutes. The plates were then air dried for 30 minutes following chloroforming. 1-2 indicator strain colonies were then transferred from a stock plate into complementary suspension solution. The suspensions were then vortexed, and a sample was inoculated onto the same agar surface. These samples were streaked in a perpendicular direction to the initial producer streak.
(§2) Each indicator streak was prepared with fresh a suspension containing cells from a corresponding stock plate containing the indicator strain of interest. Indicator strains suspension samples were transferred using a fresh cotton swab. Results were measured by qualitatively reviewing the subsequent (if any) sizes of the zones of inhibition (ZOI) of indicator strain colony growth. A positive result is when there is a distinctive reduction or complete inhibition of indicator colony growth on the culture medium.
(§3) CABCa agar plates containing various concentrations of saccharide were prepared according to the methods described in Method 1. Producer strains were transferred from stock agar plates into 900 μL THB using a fresh cotton swab. A plastic spread plater was cut to approximately 1.2 cm width and then dipped into ethanol and left to air dry to ensure sterility. A 100 μL sample of the producer strain suspension was then dispensed onto the agar surface in a straight line running diametrically across the agar surface in (approximately) 20 μL spots. The spots were spaced approximately 1.5 cm apart from each other. The plastic spreader was then used to evenly distribute the spots across the agar surface in a 1.5 cm wide strip. This step was taken to ensure an even producer streak was inoculated onto the agar surface and provided an approximate measure of the initial inoculum concentration. Separate plastic spreaders were used for samples containing different producer strains. The samples were left to soak into the agar surface until there was no visible liquid remaining on the agar surface (approximately 20 minutes). Following producer streak preparations, the deferred antagonism assay protocol was followed as per Method 2. Results were recorded by measuring the size of the zone of inhibition (ZOI) in mm.
(§4) A dose response assay was carried out according to method 3 above, except a 1.2 cm streak was used. For the individual saccharide testing the pH of the producer streak was adjusted after the growth of producer to change the acidic conditions.
(§5) A deferred antagonism assay was conducted using K12 or M18 raw ingredient suspended in Todd Hewitt broth (THB). This was spread as a 1.2 cm streak containing approximately 1-2×10^6 cfu down the middle of a CABCa control or CABCa galactose supplemented test plate. After 18 hrs growth at 37° C. with 5% CO2, bacterial growth was removed, and the pH of the agar in the initial streak was measured and adjusted to a pH of 6.5-7.5 using 0.5M sodium carbonate pH11 before sterilizing the agar surface using chloroform vapor. Bacterial test strains were suspended in i-THB before being swabbed across the plates perpendicular to the initial streak. Plates were incubated for a further 18 hrs incubation at 37° C. with 5% CO2 before measuring (mm) any zones of inhibition for each test strain, […]

[2] = tested on: S. constellatus T29; assay: as above; details: for Zone of inhibition S. constellatus T29: K12
Method: as §1, §2, §3, §4, §5

[3] = tested on: S. saprophyticus ATCC 15305; assay: as above; details: for Zone of inhibition S. saprophyticus ATCC 15305 / Inhibitory activity of S. salivarius K12 in presence of saccharides, S. saprophyticus ATCC 15305: K12
Method: as §1, §2, §3, §4, §5

[4] = tested on: S. pneumoniae D39; assay: as above; details: for Zone of inhibition S. pneumoniae D39: K12
Method: as §1, §2, §3, §4, §5

[5] = tested on: S. mutans OMZ175; assay: as above; details: for Zone of inhibition S. mutans OMZ175 / Inhibitory activity of S. salivarius K12 in presence of saccharides, S. mutans OMZ175: K12
Method: as §1, §2, §3, §4, §5

[6] = tested on: S. pyogenes 71-698; assay: as above; details: for Zone of inhibition S. pyogenes 71-698: K12
Method: as §1, §2, §3, §4, §5

[7] = tested on: S. aureus A222; assay: Deferred antagonism assay, producer S. salivarius M18; details: for Zone of inhibition S. aureus A222: M18
Method: as §1, §2, §3, §4, §5

[8] = 2.5, 5 and 10% w/v raffinose added

## OC[C@H]1O[C@H](OC[C@H]2O[C@H](O[C@]3(CO)O[C@H](CO)[C@@H](O)[C@@H]3O)[C@H](O)[C@@H](O)[C@@H]2O)[C@H](O)[C@@H](O)[C@H]1O [Raffinose, D-(+) Raffinose pentahydrate]
[1]; 1.25, 2.5, 5 and 10% w/v raffinose added
  sensitivity of S. aureus A222 to K12: sensitive
[1]; Raffinose 1.7% wt
  Zone of inhibition S. aureus A222: 12 mm
[1]; Raffinose 1.7% wt, pH adjusted
  Zone of inhibition S. aureus A222: 8 mm
[1]; Raffinose 2.5% wt
  Zone of inhibition S. aureus A222: 15 mm
[1]; Raffinose 2.5% wt, pH adjusted
  Zone of inhibition S. aureus A222: 15 mm
[1]; Raffinose 3.3% wt
  Zone of inhibition S. aureus A222: 16 mm
[1]; Raffinose 3.3% wt, pH adjusted
  Zone of inhibition S. aureus A222: 13 mm
[1]; Raffinose 5% wt
  Zone of inhibition S. aureus A222: 14 mm
[1]; Raffinose 5% wt, pH adjusted
  Zone of inhibition S. aureus A222: 14 mm
[1]; Raffinose 10% wt
  Zone of inhibition S. aureus A222: 13 mm
[1]; Raffinose 10% wt, pH adjusted
  Zone of inhibition S. aureus A222: 13 mm
[1]; saccharide 3.3% w/v
  Inhibitory activity of S. salivarius K12 in presence of saccharides, S. aureus A222: ✓
[1]; saccharide range 2.5%-10% w/v
  Inhibitory activity of S. salivarius K12 in presence of saccharides, S. aureus A222: ✓
[2]; 0.5 to 10% w/v raffinose
  inhibition by K12 of S. constellatus T-29: increase in inhibition
[2]; Raffinose 1.7% wt
  Zone of inhibition S. constellatus T29: 8 mm
[2]; Raffinose 1.7% wt, pH adjusted
  Zone of inhibition S. constellatus T29: 4 mm
[2]; Raffinose 2.5% wt
  Zone of inhibition S. constellatus T29: 22 mm
[2]; Raffinose 2.5% wt, pH adjusted
  Zone of inhibition S. constellatus T29: 18 mm
[2]; Raffinose 3.3% wt, pH adjusted
  Zone of inhibition S. constellatus T29: 16 mm
[2]; Raffinose 5% wt, pH adjusted
  Zone of inhibition S. constellatus T29: 12 mm
[2]; Raffinose 10% wt
  Zone of inhibition S. constellatus T29: 2 mm
[2]; Raffinose 10% wt, pH adjusted
  Zone of inhibition S. constellatus T29: 11 mm
[3]; [8]
  sensitivity of S. saprophyticus ATCC 15305 to K12: sensitive
[3]; Raffinose 1.7% wt
  Zone of inhibition S. saprophyticus ATCC 15305: 7 mm
[3]; Raffinose 1.7% wt, pH adjusted
  Zone of inhibition S. saprophyticus ATCC 15305: 0 mm
[3]; Raffinose 2.5% wt
  Zone of inhibition S. saprophyticus ATCC 15305: 12 mm
[3]; Raffinose 2.5% wt, pH adjusted
  Zone of inhibition S. saprophyticus ATCC 15305: 8 mm
[3]; Raffinose 3.3% wt
  Zone of inhibition S. saprophyticus ATCC 15305: 12 mm
[3]; Raffinose 3.3% wt, pH adjusted
  Zone of inhibition S. saprophyticus ATCC 15305: 11 mm
[3]; Raffinose 5% wt
  Zone of inhibition S. saprophyticus ATCC 15305: 13 mm
[3]; Raffinose 5% wt, pH adjusted
  Zone of inhibition S. saprophyticus ATCC 15305: 12 mm
[3]; Raffinose 10% wt
  Zone of inhibition S. saprophyticus ATCC 15305: 12 mm
[3]; Raffinose 10% wt, pH adjusted
  Zone of inhibition S. saprophyticus ATCC 15305: 11 mm
[3]; saccharide 3.3% w/v
  Inhibitory activity of S. salivarius K12 in presence of saccharides, S. saprophyticus ATCC 15305: ✓
[3]; saccharide range 2.5%-10% w/v
  Inhibitory activity of S. salivarius K12 in presence of saccharides, S. saprophyticus ATCC 15305: ✓
[4]; 0.5 to 10% w/v raffinose
  inhibition by K12 of S. pneumoniae: increase in inhibition
[4]; Raffinose 1.7% wt
  Zone of inhibition S. pneumoniae D39: 5 mm
[4]; Raffinose 1.7% wt, pH adjusted
  Zone of inhibition S. pneumoniae D39: 10 mm
[4]; Raffinose 2.5% wt
  Zone of inhibition S. pneumoniae D39: 8 mm
[4]; Raffinose 2.5% wt, pH adjusted
  Zone of inhibition S. pneumoniae D39: 9 mm
[4]; Raffinose 3.3% wt
  Zone of inhibition S. pneumoniae D39: 10 mm
[4]; Raffinose 3.3% wt, pH adjusted
  Zone of inhibition S. pneumoniae D39: 7 mm
[4]; Raffinose 5% wt
  Zone of inhibition S. pneumoniae D39: 8 mm
[4]; Raffinose 5% wt, pH adjusted
  Zone of inhibition S. pneumoniae D39: 13 mm
[4]; Raffinose 10% wt
  Zone of inhibition S. pneumoniae D39: 10 mm
[4]; Raffinose 10% wt, pH adjusted
  Zone of inhibition S. pneumoniae D39: 10 mm
[5]; [8]
  sensitivity of S. mutans OMZ175 to K12: sensitive
[5]; Raffinose 1.7% wt
  Zone of inhibition S. mutans OMZ175: 11 mm
[5]; Raffinose 1.7% wt, pH adjusted
  Zone of inhibition S. mutans OMZ175: 7 mm
[5]; Raffinose 2.5% wt
  Zone of inhibition S. mutans OMZ175: 16 mm
[5]; Raffinose 2.5% wt, pH adjusted
  Zone of inhibition S. mutans OMZ175: 13 mm
[5]; Raffinose 3.3% wt
  Zone of inhibition S. mutans OMZ175: 16 mm
[5]; Raffinose 3.3% wt, pH adjusted
  Zone of inhibition S. mutans OMZ175: 14 mm
[5]; Raffinose 5% wt
  Zone of inhibition S. mutans OMZ175: 16 mm
[5]; Raffinose 5% wt, pH adjusted
  Zone of inhibition S. mutans OMZ175: 15 mm
[5]; Raffinose 10% wt
  Zone of inhibition S. mutans OMZ175: 15 mm
[5]; Raffinose 10% wt, pH adjusted
  Zone of inhibition S. mutans OMZ175: 10 mm
[5]; saccharide 3.3% w/v
  Inhibitory activity of S. salivarius K12 in presence of saccharides, S. mutans OMZ175: ✓
[5]; saccharide range 2.5%-10% w/v
  Inhibitory activity of S. salivarius K12 in presence of saccharides, S. mutans OMZ175: ✓
[6]; 0.5 to 10% w/v raffinose
  inhibition by K12 of S. pyogenes: increase in inhibition
[6]; Raffinose 1.7% wt
  Zone of inhibition S. pyogenes 71-698: 10 mm
[6]; Raffinose 1.7% wt, pH adjusted
  Zone of inhibition S. pyogenes 71-698: 4 mm
[6]; Raffinose 2.5% wt
  Zone of inhibition S. pyogenes 71-698: 9 mm
[6]; Raffinose 2.5% wt, pH adjusted
  Zone of inhibition S. pyogenes 71-698: 3 mm
[6]; Raffinose 3.3% wt
  Zone of inhibition S. pyogenes 71-698: 11 mm
[6]; Raffinose 5% wt
  Zone of inhibition S. pyogenes 71-698: 7 mm
[6]; Raffinose 5% wt, pH adjusted
  Zone of inhibition S. pyogenes 71-698: 1 mm
[6]; Raffinose 10% wt
  Zone of inhibition S. pyogenes 71-698: 3 mm
[6]; Raffinose 10% wt, pH adjusted
  Zone of inhibition S. pyogenes 71-698: 3 mm
[7]; 1.25, 2.5, 5% w/v raffinose added
  sensitivity of S. aureus A222 to M18: sensitive
[7]; Raffinose 1.7% wt
  Zone of inhibition S. aureus A222: 20 mm
[7]; Raffinose 1.7% wt, pH adjusted
  Zone of inhibition S. aureus A222: 17 mm
[7]; Raffinose 2.5% wt
  Zone of inhibition S. aureus A222: 20 mm
[7]; Raffinose 2.5% wt, pH adjusted
  Zone of inhibition S. aureus A222: 18 mm
[7]; Raffinose 3.3% wt
  Zone of inhibition S. aureus A222: 18 mm
[7]; Raffinose 3.3% wt, pH adjusted
  Zone of inhibition S. aureus A222: 17 mm
[7]; Raffinose 5% wt
  Zone of inhibition S. aureus A222: 16 mm
[7]; Raffinose 5% wt, pH adjusted
  Zone of inhibition S. aureus A222: 13 mm
[7]; Raffinose 10% wt
  Zone of inhibition S. aureus A222: 0 mm
[7]; Raffinose 10% wt, pH adjusted
  Zone of inhibition S. aureus A222: 0 mm
